Measured values published in patent publication US11000033B2, “Ketone or oxime compound, and herbicide” (NISSAN CHEMICAL CORPORATION, priority 2014, dated 2021).

What was measured:
Assay type in all cases: in vivo
Conditions in all cases: 320 g/ha, 3 weeks after application
Setaria viridis = test: Test Example 5: herbicidal effect by foliage application, plastic box (symbol G)
Source text: (§1) Herbicidal Effect Test by Foliage Application
(§2) Sterilized diluvial soil was placed in a plastic box having a length of 21 cm, a width of 13 cm, and a depth of 7 cm. Each of the seeds of Digitaria ciliaris, Setaria viridis, Echinochloa crus-galli var. crus-galli, Avena fatua, Alopecurus myosuroides, Lolium multiflorum Lam., Apera spica-venti, Abutilon theophrasti, Amaranthus retroflexus, Chenopodium album, Stellaria media, Galium spurium, Veronica persica, corn, soybean, rice plant, wheat, beet, and rapeseed was sowed in a spot-like manner and was covered with the soil of a thickness of about 1.5 cm. Thereafter, the plants were grown in the greenhouse of 25° C. to 30° C. After the plants were grown for 14 days, the emulsion agent of the compound of the present invention prepared in accordance with Formulation Example 2 was diluted with water so as to be a predetermined herbicide amount and the diluted emulsion agent was uniformly applied to a foliage part with a small-size spray. 3 weeks later from the herbicide application, the effect to each plant was investigated in accordance with the criteria of Test Example 1.

Galium spurium = test: Test Example 5: herbicidal effect by foliage application, plastic box (symbol Q)
Source text: as §1, §2

Abutilon theophrasti = test: Test Example 5: herbicidal effect by foliage application, plastic box (symbol M)
Source text: as §1, §2

Amaranthus retroflexus = test: Test Example 5: herbicidal effect by foliage application, plastic box (symbol N)
Source text: as §1, §2

Avena fatua = test: Test Example 5: herbicidal effect by foliage application, plastic box (symbol I)
Source text: as §1, §2

wheat = test: Test Example 5: effect on crop by foliage application, plastic box (symbol e)
Source text: as §1
(§3) Sterilized diluvial soil was placed in a plastic box having a length of 21 cm, a width of 13 cm, and a depth of 7 cm. Each of the seeds of Digitaria ciliaris, Setaria viridis, Echinochloa crus-galli var. crus-galli, Avena fatua, Alopecurus myosuroides, Lolium multiflorum Lam., Apera spica-venti, Abutilon theophrasti, Amaranthus retroflexus, Chenopodium album, Stellaria media, Galium spurium, Veronica persica, corn, soybean, rice plant, wheat, beet, and rapeseed was sowed in a spot-like manner and was covered with the soil of a thickness of about 1.5 cm. Thereafter, the plants were grown in the greenhouse of 25° C. to 30° C.

Veronica persica = test: Test Example 5: herbicidal effect by foliage application, plastic box (symbol R)
Source text: as §1, §2

Lolium multiflorum Lam. = test: Test Example 5: herbicidal effect by foliage application, plastic box (symbol K)
Source text: as §1, §2

rice plant = test: Test Example 5: effect on crop by foliage application, plastic box (symbol b)
Source text: as §1, §3

Digitaria ciliaris = test: Test Example 5: herbicidal effect by foliage application, plastic box (symbol F)
Source text: as §1, §2

Alopecurus myosuroides = test: Test Example 5: herbicidal effect by foliage application, plastic box (symbol J)
Source text: as §1, §2

Chenopodium album = test: Test Example 5: herbicidal effect by foliage application, plastic box (symbol O)
Source text: as §1, §2

Stellaria media = test: Test Example 5: herbicidal effect by foliage application, plastic box (symbol P)
Source text: as §1, §2

corn = test: Test Example 5: effect on crop by foliage application, plastic box (symbol c)
Source text: as §1, §3

soybean = test: Test Example 5: effect on crop by foliage application, plastic box (symbol d)
Source text: as §1, §3

beet = test: Test Example 5: effect on crop by foliage application, plastic box (symbol f)
Source text: as §1, §3

rapeseed = test: Test Example 5: effect on crop by foliage application, plastic box (symbol g)
Source text: as §1, §3

CON=C(C)CC1CC(OC)=C(c2c(C)cc(-c3ccc(SC)cc3)cc2C)C1=O (mixture of isomers) [6-021]
G: Setaria viridis, herbicidal effect grade (Setaria viridis): 3 (Herbicidal ratio of 40% or higher and lower than 70%) | Q: Galium spurium, herbicidal effect grade (Galium spurium): 0 (Herbicidal ratio of 5% or lower (almost no effect)) | M: Abutilon theophrasti, herbicidal effect grade (Abutilon theophrasti): 0 (Herbicidal ratio of 5% or lower (almost no effect)) | N: Amaranthus retroflexus, herbicidal effect grade (Amaranthus retroflexus): 0 (Herbicidal ratio of 5% or lower (almost no effect)) | I: Avena fatua, herbicidal effect grade (Avena fatua): 1 (Herbicidal ratio of 5% or higher and lower than 20%) | e: wheat, effect on crop grade (wheat): 0 (Herbicidal ratio of 5% or lower (almost no effect)) | R: Veronica persica, herbicidal effect grade (Veronica persica): 0 (Herbicidal ratio of 5% or lower (almost no effect)) | K: Lolium multiflorum Lam., herbicidal effect grade (Lolium multiflorum Lam.): 5 (Herbicidal ratio of 90% or more (almost completely withered)) | b: directly sowed rice plant, effect on crop grade (rice plant): 0 (Herbicidal ratio of 5% or lower (almost no effect)) | F: Digitaria ciliaris, herbicidal effect grade (Digitaria ciliaris): 0 (Herbicidal ratio of 5% or lower (almost no effect)) | J: Alopecurus myosuroides, herbicidal effect grade (Alopecurus myosuroides): 3 (Herbicidal ratio of 40% or higher and lower than 70%) | O: Chenopodium album, herbicidal effect grade (Chenopodium album): 0 (Herbicidal ratio of 5% or lower (almost no effect)) | P: Stellaria media, herbicidal effect grade (Stellaria media): 0 (Herbicidal ratio of 5% or lower (almost no effect)) | c: corn, effect on crop grade (corn): 0 (Herbicidal ratio of 5% or lower (almost no effect)) | d: soybean, effect on crop grade (soybean): 0 (Herbicidal ratio of 5% or lower (almost no effect)) | f: beet, effect on crop grade (beet): 0 (Herbicidal ratio of 5% or lower (almost no effect)) | g: rapeseed, effect on crop grade (rapeseed): 3 (Herbicidal ratio of 40% or higher and lower than 70%)
